# Source: patent US5036059A, “1,4-Dihydropyridine-3-carboxylate derivatives” (Nippon Shinyaku Company, Limited, priority 1984, dated 1991)
# Experiments:
# [1] = test system: rats (with normal blood pressure); assay: Hypotensive action, mean blood pressure of femoral artery in unanesthetized normotensive rats, oral; type: in vivo; conditions: Rattus norvegicus, read-out: % Decreases in Mean Blood Pressure [at peak effect]
# Experimental: Blood pressure of femoral artery of rats (with normal blood pressure) under unanesthetized condition was measured directly using a pressure tranducer.
# The present invention compounds were given orally at doses of 1, 3 and 10 mg/kg, and changes in blood pressure were continuously recorded. Percent decreases of mean blood pressure at the peak effect were calculated. The maximum changes in mean blood pressure (%) were shown as "hypotensive action" (Table 2).
# (§1) Hypotensive action of diltiazem (which is a known hypotensive drug) measured by the same method at the doses of 3, 10 and 30 mg/kg were 0, 11.2 and 33.0%, respectively. Hypotensive action of the compound of Example 4 which is one of the most representative compounds of this invention was tested using spontaneously hypertensive rats and was compared with those of Nifedipine and Diltiazem hydrochloride. The method applied was that the drugs were orally given to the rats of which systolic arterial blood pressure were higher than 180 mmHg when it was measured plethysmographically using tail arteries. (Table 3)
# [2] = test system: spontaneously hypertensive rats; assay: Hypotensive action in spontaneously hypertensive rats, systolic arterial blood pressure by tail plethysmography, oral; type: in vivo
# Experimental: as §1
# Doses in mg/kg (p.o.) are as follows: *0.3 (1.0); **1.0 (3.0); ***30.
# [3] = 0.5 hr after administration, 1.0 mg/kg p.o.
# [4] = 1 hr after administration, 1.0 mg/kg p.o.
# [5] = 2 hr after administration, 1.0 mg/kg p.o.
# [6] = 3 hr after administration, 1.0 mg/kg p.o.
# [7] = 5 hr after administration, 1.0 mg/kg p.o.
# [8] = 8 hr after administration, 1.0 mg/kg p.o.
# [9] = 12 hr after administration, 1.0 mg/kg p.o.
# [10] = before administration, 1.0 mg/kg p.o.
compound,measurement,setting,value
"COC(=O)C1=C(C)NC(C)=C(P2(=O)OCCCO2)C1c1ccccc1[N+](=O)[O-] (stereo not shown) [Example 4, Methyl 2,6-dimethyl-4-(2-nitrophenyl)-5-(2-oxo-1,3,2-dioxaphosphorinan-2-yl)-1,4-dihydropyridine-3-carboxylate]",inhibition in vivo at 1 mg/kg,[1]; 1 mg/kg oral,42.6%
same,inhibition in vivo at 3 mg/kg,[1]; 3 mg/kg oral,39%
same,inhibition in vivo at 10 mg/kg,[1]; 10 mg/kg oral,41.9%
same,systolic arterial blood pressure,"[2]; 0.5 hr after administration, 0.3 mg/kg p.o.",126.0 ± 3.9
same,systolic arterial blood pressure,[2]; [3],87.7 ± 4.9
same,systolic arterial blood pressure,"[2]; 1 hr after administration, 0.3 mg/kg p.o.",124.0 ± 3.3
same,systolic arterial blood pressure,[2]; [4],90.2 ± 6.3
same,systolic arterial blood pressure,"[2]; 2 hr after administration, 0.3 mg/kg p.o.",134.2 ± 4.3
same,systolic arterial blood pressure,[2]; [5],103.2 ± 7.3
same,systolic arterial blood pressure,"[2]; 3 hr after administration, 0.3 mg/kg p.o.",152.5 ± 4.0
same,systolic arterial blood pressure,[2]; [6],133.3 ± 5.3
same,systolic arterial blood pressure,"[2]; 5 hr after administration, 0.3 mg/kg p.o.",156.8 ± 8.3
same,systolic arterial blood pressure,[2]; [7],150.7 ± 7.7
same,systolic arterial blood pressure,"[2]; 8 hr after administration, 0.3 mg/kg p.o.",158.3 ± 7.2
same,systolic arterial blood pressure,[2]; [8],152.8 ± 6.5
same,systolic arterial blood pressure,"[2]; 12 hr after administration, 0.3 mg/kg p.o.",170.7 ± 5.4
same,systolic arterial blood pressure,[2]; [9],165.3 ± 6.1
same,systolic arterial blood pressure,"[2]; 24 hr after administration, 0.3 mg/kg p.o.",195.3 ± 5.9
same,systolic arterial blood pressure,"[2]; 24 hr after administration, 1.0 mg/kg p.o.",187.7 ± 7.5
same,systolic arterial blood pressure,"[2]; before administration, 0.3 mg/kg p.o.",185.2 ± 5.4
same,systolic arterial blood pressure,[2]; [10],193.0 ± 6.5
"COC(=O)C1=C(C)NC(C)=C(C(=O)OC)C1c1ccccc1[N+](=O)[O-] [Nifedipine, dimethyl 2,6-dimethyl-4-(2-nitrophenyl)-1,4-dihydropyridine-3,5-dicarboxylate]",systolic arterial blood pressure,[2]; [3],139.3 ± 6.9
same,systolic arterial blood pressure,"[2]; 0.5 hr after administration, 3.0 mg/kg p.o.",112.8 ± 6.0
same,systolic arterial blood pressure,[2]; [4],161.3 ± 4.1
same,systolic arterial blood pressure,"[2]; 1 hr after administration, 3.0 mg/kg p.o.",125.8 ± 4.4
same,systolic arterial blood pressure,[2]; [5],183.5 ± 10.0
same,systolic arterial blood pressure,"[2]; 2 hr after administration, 3.0 mg/kg p.o.",148.7 ± 9.9
same,systolic arterial blood pressure,[2]; [6],188.3 ± 5.8
same,systolic arterial blood pressure,"[2]; 3 hr after administration, 3.0 mg/kg p.o.",176.8 ± 2.6
same,systolic arterial blood pressure,[2]; [7],187.2 ± 5.3
same,systolic arterial blood pressure,"[2]; 5 hr after administration, 3.0 mg/kg p.o.",183.8 ± 6.0
same,systolic arterial blood pressure,[2]; [8],190.9 ± 4.8
same,systolic arterial blood pressure,"[2]; 8 hr after administration, 3.0 mg/kg p.o.",188.5 ± 2.9
same,systolic arterial blood pressure,[2]; [9],190.3 ± 5.5
same,systolic arterial blood pressure,"[2]; 12 hr after administration, 3.0 mg/kg p.o.",190.0 ± 7.0
same,systolic arterial blood pressure,[2]; [10],194.8 ± 2.1
same,systolic arterial blood pressure,"[2]; before administration, 3.0 mg/kg p.o.",189.0 ± 5.1
